Article PMC8617627, “Novel DYRK1A Inhibitor Rescues Learning and Memory Deficits in a Mouse Model of Down Syndrome” (Pharmaceuticals, 2021)
Read-outs that look alike come from different tables or passages of the source.

Columns and labels:
Experiment in all cases: Kinase profile (33P ATP filter binding)
Assay type in all cases: biochemical
TLK1 = target: T1, TLK1 (Homo sapiens, UniProt Q9UKI8); settings: read-out: Remaining protein kinase activity
T1 sequence (Q9UKI8 1-766): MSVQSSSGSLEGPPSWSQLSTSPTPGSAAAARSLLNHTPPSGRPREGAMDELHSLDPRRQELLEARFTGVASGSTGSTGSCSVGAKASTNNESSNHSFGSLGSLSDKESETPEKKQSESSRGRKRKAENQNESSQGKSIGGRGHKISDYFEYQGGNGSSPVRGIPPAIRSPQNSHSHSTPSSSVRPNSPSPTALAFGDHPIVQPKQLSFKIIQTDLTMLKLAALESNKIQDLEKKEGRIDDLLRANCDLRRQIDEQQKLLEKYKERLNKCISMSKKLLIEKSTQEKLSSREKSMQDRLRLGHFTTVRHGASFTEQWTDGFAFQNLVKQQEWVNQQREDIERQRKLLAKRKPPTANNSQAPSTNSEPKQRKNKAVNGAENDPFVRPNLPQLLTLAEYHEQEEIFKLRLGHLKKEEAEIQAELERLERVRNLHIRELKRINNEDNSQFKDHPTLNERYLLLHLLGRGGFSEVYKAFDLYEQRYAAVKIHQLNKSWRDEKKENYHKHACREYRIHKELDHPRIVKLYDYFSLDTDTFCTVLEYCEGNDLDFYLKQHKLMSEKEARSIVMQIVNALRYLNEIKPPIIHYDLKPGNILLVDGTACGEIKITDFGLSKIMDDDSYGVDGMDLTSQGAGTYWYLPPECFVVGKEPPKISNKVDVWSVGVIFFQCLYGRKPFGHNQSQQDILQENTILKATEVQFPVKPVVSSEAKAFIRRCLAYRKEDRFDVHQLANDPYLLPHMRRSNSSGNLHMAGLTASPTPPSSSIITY

MST3 = MST3 (Homo sapiens, UniProt Q9Y6E0)
MST3, sequence (Q9Y6E0 whole entry): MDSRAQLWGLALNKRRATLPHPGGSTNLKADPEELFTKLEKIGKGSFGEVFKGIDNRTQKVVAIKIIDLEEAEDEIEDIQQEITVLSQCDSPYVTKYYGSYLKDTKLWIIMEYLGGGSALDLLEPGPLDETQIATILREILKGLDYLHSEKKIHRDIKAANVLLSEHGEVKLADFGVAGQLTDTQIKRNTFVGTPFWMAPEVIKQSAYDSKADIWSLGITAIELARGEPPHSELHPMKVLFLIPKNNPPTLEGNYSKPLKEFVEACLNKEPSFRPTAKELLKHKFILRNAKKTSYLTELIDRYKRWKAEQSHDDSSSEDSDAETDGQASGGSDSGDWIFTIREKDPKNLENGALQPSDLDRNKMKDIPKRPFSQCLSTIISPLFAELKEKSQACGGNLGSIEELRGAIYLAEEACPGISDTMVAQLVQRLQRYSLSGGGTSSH

CSK = CSK (Homo sapiens, UniProt P41240)
CSK, sequence (P41240 whole entry): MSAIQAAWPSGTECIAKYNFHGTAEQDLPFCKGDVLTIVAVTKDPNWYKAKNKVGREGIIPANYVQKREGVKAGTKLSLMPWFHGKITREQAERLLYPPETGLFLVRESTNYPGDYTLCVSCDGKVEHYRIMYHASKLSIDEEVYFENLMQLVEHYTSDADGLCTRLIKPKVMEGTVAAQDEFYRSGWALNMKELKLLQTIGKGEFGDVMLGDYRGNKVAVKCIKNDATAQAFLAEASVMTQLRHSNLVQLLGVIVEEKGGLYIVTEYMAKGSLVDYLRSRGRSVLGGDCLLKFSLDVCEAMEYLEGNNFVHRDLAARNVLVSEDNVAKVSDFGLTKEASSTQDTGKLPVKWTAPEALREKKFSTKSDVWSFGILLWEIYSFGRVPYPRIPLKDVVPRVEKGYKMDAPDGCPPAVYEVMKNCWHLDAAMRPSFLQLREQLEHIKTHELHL

BRSK1 = target: T2, BRSK1 (Homo sapiens, UniProt Q8TDC3); settings: read-out: Remaining protein kinase activity
T2 sequence (Q8TDC3 1-778): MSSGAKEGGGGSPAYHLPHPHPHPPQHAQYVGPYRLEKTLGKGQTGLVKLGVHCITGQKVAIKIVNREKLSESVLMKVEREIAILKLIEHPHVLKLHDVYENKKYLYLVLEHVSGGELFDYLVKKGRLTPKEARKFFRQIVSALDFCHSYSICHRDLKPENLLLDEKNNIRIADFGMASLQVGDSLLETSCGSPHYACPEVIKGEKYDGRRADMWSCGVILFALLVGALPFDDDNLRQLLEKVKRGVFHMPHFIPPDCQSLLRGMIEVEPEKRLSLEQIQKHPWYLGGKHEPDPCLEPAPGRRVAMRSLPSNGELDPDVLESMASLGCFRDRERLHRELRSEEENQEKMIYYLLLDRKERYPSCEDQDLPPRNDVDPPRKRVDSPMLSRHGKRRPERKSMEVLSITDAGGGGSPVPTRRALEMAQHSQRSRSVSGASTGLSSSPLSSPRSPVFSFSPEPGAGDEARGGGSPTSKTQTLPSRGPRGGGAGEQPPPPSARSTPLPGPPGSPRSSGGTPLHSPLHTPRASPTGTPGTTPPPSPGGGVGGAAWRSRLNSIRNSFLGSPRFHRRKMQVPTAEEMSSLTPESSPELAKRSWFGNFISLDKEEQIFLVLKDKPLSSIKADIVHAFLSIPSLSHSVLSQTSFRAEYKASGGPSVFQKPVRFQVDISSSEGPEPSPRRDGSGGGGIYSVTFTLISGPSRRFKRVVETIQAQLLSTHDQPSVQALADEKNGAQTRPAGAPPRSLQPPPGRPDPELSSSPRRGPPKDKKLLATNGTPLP

MELK = MELK (Homo sapiens, UniProt Q14680); settings: read-out: Remaining protein kinase activity
MELK, sequence (Q14680 whole entry): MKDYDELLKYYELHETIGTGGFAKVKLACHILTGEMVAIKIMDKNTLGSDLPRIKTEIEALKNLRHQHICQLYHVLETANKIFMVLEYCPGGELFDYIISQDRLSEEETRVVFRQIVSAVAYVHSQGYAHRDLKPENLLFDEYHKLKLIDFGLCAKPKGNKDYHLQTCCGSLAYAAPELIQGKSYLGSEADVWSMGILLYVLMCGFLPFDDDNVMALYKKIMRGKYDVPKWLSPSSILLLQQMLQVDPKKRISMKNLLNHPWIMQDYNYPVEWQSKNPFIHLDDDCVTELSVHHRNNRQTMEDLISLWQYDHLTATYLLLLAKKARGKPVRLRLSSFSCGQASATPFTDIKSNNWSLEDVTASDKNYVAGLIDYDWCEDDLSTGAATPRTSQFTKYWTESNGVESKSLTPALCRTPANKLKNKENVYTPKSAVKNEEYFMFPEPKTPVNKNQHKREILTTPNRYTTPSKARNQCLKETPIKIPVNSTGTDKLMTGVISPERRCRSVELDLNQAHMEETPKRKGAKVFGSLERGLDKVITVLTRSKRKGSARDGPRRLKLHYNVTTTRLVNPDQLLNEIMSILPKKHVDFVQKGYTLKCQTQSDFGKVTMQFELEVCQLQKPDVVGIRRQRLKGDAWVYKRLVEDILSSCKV

TSSK1 = target: T3, TSSK1 (Homo sapiens, UniProt Q9BXA7); settings: read-out: Remaining protein kinase activity
T3 sequence (Q9BXA7 1-367): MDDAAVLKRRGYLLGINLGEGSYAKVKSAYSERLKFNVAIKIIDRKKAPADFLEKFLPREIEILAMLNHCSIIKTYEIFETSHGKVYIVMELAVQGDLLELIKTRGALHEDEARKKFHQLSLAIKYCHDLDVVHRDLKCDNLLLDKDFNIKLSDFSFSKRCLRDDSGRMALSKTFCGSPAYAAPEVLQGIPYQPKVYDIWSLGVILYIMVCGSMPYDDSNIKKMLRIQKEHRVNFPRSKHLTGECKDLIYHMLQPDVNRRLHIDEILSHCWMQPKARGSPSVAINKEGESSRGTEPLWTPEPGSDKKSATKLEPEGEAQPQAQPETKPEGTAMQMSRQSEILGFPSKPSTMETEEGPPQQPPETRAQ

Row | Structure (SMILES) | remaining activity at 1 µM (TLK1) | remaining activity at 100 µM (TLK1) | Remaining protein kinase activity (MST3; 1 μM) | Remaining protein kinase activity (MST3; 100 μM) | Remaining protein kinase activity (CSK; 1 μM) | Remaining protein kinase activity (CSK; 100 μM) | remaining activity at 1 µM (BRSK1) | remaining activity at 100 µM (BRSK1) | remaining activity at 1 µM (MELK) | remaining activity at 100 µM (MELK) | remaining activity at 1 µM (TSSK1) | remaining activity at 100 µM (TSSK1) | remaining activity at 1 µM (TLK1; TLK1, 1 μM) | remaining activity at 100 µM (TLK1; TLK1, 100 μM) | remaining activity at 1 µM (BRSK1; BRSK1, 1 μM) | remaining activity at 100 µM (BRSK1; BRSK1, 100 μM) | remaining activity at 1 µM (MELK; MELK, 1 μM) | remaining activity at 100 µM (MELK; MELK, 100 μM) | remaining activity at 1 µM (TSSK1; TSSK1, 1 μM) | remaining activity at 100 µM (TSSK1; TSSK1, 100 μM)
1 | COc1ccc2sc(-c3cncc(NC(C)=O)c3)nc2c1 [PST-001, N-(5-(5-Methoxybenzo[d]thiazol-2-yl)pyridin-3-yl)acetamide] | 129% | 134% | 118% | 113% | 121% | 126% | 114% | 111% | 99% | 44% | 124% | 114% | – | – | – | – | – | – | – | –
2 | COc1ccc2sc(-c3cncc(N)c3)nc2c1 [compound 1, 5-(5-Methoxybenzo[d]thiazol-2-yl)pyridin-3-amine] | – | – | 114% | 96% | 116% | 78% | – | – | – | – | – | – | 131% | 115% | 115% | 37% | 96% | 12% | 107% | 70%
